The values below come from patent US20250000847A1, “TREATMENT OF NEURODEGENERATIVE DISEASES WITH HDAC INHIBITORS” (CASE WESTERN RESERVE UNIVERSITY, priority 2021, published 2025).

The test system of series [1] is NF-κB (RelA/P65) transcriptional activity. The experiment in a line: NF-κB Jurkat reporter assay. Format: cell-based. An excerpt:
NF-κB luciferase reporter Jurkat T-cells were used to measure NF-κB transcriptional activity in response to reactive astrocyte driving cytokines with or HDAC inhibitors and other validated hits from the primary screen. NFκB luciferase reporter Jurkat T-Cells (BPS Biosciences 60651) were purchased from BPS Bioscience. Within this cell line, the firefly luciferase gene is controlled by four copies of an NF-κB response element located upstream of the TATA promoter. Following activation by an external stimulant, endogenous NF-κB transcription factors bound to the DNA response elements to induce transcription of the luciferase gene.
Background: In a reporter assay the amount or activity of a reporter protein is the signal.

In series [2] the test system is retinal ganglion cells (RGCs). Kind of series: Optic nerve crush model of neurodegeneration. In kind it is in vivo, mouse. Particulars: 10 mg/kg daily i.p. for 14 days after optic nerve crush. An excerpt:
The optic nerve of adult mice was surgically accessed and crushed. […] 14 days after optic nerve crush surgery, retina were harvested and stained for the RGC marker BRN3A, and the pan neuronal maker BIII-tubulin.

The test system of series [3] is MHC Class I (H-2Kb) bound to OVA257-264 on reactive astrocytes. Kind of series: OVA257-264 peptide antigen cross presentation assay. In kind it is cell-based, mouse. The protocol:
To test whether HDAC inhibitors block the ability of reactive astrocytes to cross present exogenous antigen, cells were plated down in 96-well plates at a density of about 500 cells/mm^2. Cells were then treated with HDAC inhibitors for 1 hr prior to the addition of reactive astrocyte driving factors as the concentrations stated above. Cells were incubated for 24 hrs, after which, media was washed out and replaced with media containing the peptide fragment ovalbumin 257-264 (OVA257-264). Cells were then incubated overnight, and then stained for 2 hrs at 37° C. with APC-conjugated antibody against MHC Class I (H-2Kb) bound to OVA257-264, then visualized. The percent of H-2Kb positive cells as a percent of total live cells was determined (FIG. 3).
After 24 hours of treatment, these cells were cultured in the presence of the OVA257264 Peptide (GenScript RP10611 or Sigma S7951). After 12 hours, the cells were live-stained for two hours using a conjugated antibody targeted against an OVA257-264 peptide antigen. The cells were then fixed and imaged using the PerkinElmer Operetta CLS High-Content Analysis System.

Series [4] has as its system GBP2+ reactive astrocytes. Kind of series: Lipopolysaccharide (LPS) model of neuroinflammation, GBP2+ reactive astrocytes in brain. Format: in vivo, mouse. Here is the method: After which, brain tissue was collected from the mice and processed for in situ hybridization with probes targeting GFAP as a general astrocyte marker, and the reactive astrocyte-specific marker GBP2.
For in vivo studies in situ hybridization was performed using RNAscope Multiplex Fluorescent V2 Assay (ACD Bio, 323136) according to manufacturer's instructions for fixed frozen samples. Briefly, tissue was prepared by first dehydrating with increasingly higher percentages of ethanol, then dried, blocked with hydrogen peroxide, followed by antigen retrieval for 5 minutes, dried again, and then protein was digested using provided Protease III. RNA targeting probes purchased from ACD Bio were then annealed at 40° C. for 2 hrs, followed by washing and a series of amplification steps before finally tagging the RNA with Opal Dye fluorophores (Perkin Elmer). In situ hybridization Images were captured on a Hamamatsu Nanozoomer S60 Slide scanner with NDP 2.0 software. Image analysis was performed using Perkin Elmer Columbus automated software.

Series [5] deals with acetylated histone 4 (AcH4). Kind of series: Acetylated histone 4 in vivo (target engagement). The arrangement: species or system mouse. To be noted: chronic daily 10 mg/kg, then two days of 5 mg/kg LPS. Here is the method: Mice were perfused with PBS followed by 4% paraformaldehyde, after which brains were extracted and cryopreserved in 30% sucrose then frozen in OCT and sectioned. The stain slides were washed with PBS then incubated overnight with primary antibody against acetyl-Histone H4 (EMD Millipore, 06-866). After primary incubation slides were then washed and labeled with AlexaFluor secondary antibodies (ThermoFisher). Images were captured on a Hamamatsu Nanozoomer S60 Slide scanner with NDP 2.0 software. Image analysis was performed using Perkin Elmer Columbus automated software.

The nature of series [6]: Pharmacokinetics, brain tissue. Format: in vivo, mouse. The protocol: Mice were then perfused with saline to remove blood from the brain. Brain tissue was then collected and snap frozen. Brain tissues were thawed at room temperature and homogenized in PBS. Calibration standards and study samples were extracted with 3× volume of acetonitrile containing 0.1% formic acid+200 ng/ml internal standard solution. Samples were then vortexed each for 1 minute and then transferred to an Eppendorf R5417R and centrifuged at 14000 rpm for 7 minutes. Following extraction of tissue homogenate calibrators and study samples were transferred directly to an autosampler microtiter plate for analysis. Samples were analyzed by LC-MS-MS in the positive ion electrospray ionization mode.

The test system of series [7] is genes associated with damaging and beneficial reactive astrocytes. The experiment in a line: Bulk RNAseq of reactive astrocytes. In kind it is cell-based, mouse. The source says:
Total RNA was extracted from resting and reactive astrocytes using the same procedure as described for qPCR and sent to Novogene for mRNA Sequencing.
For gene expression analysis, reads were mapped to the mm10 genome using kallisto 0.46.1 (Bray et al., Nat Biotechnol 34, 525-527, doi:10.1038/nbt.3519 (2016)). Transcripts were summarized to the gene level with tximport (Soneson et al., F1OORes 4, 1521, doi:10.12688/fl000research.7563.2 (2015). Normalized expression and differentiation gene expression was then generated using DESEQ2 (Love et al., Genome Biol 15, 550, doi:10.1186/s13059-014-0550-8 (2014)).

Another series deals with spinal cord LPC lesion. The experiment in a line: Lysolecithin (LPC) injection model of focal tissue damage. In kind it is in vivo, mouse. Here is the method:
This was based on a toxin-based model of CNS tissue damage, where lysolecithin (lysophosphatidylcholine (LPC)) is injected into the dorsal column of the spinal cord leading to cell death, demyelination, and axonal damage at 4 days post lesion (dpl).
Focal tissue damage in the spinal cord was induced by the injection of 1% LPC solution. 10-12 week old C57BL/6 female mice were anesthetized using isoflurane and a T10 laminectomy was performed. 1 μL of 1% LPC was infused into the dorsal column at a rate of […]. The animals were euthanized at day twelve after the laminectomy (n=6-9 per group). […] Mice were then processed for immunohistochemistry or electron microscopy.
Samples were processed as previously described (Najm et al., Nat Methods 8, 957-962, doi:10.1038/nmeth.1712 (2011)). Briefly, Mice were perfused with 4% PFA, 2% glutaraldehyde, and 0.1 M sodium cacodylate. Spinal cords were extracted and samples were osmicated, stained en bloc with uranyl acetate and embedded in EMbed 812, an Epon-812 substitute (EMS). Thin sections were cut, carbon-coated and imaged either on JEOL JEM-1200-EX electron microscope or a T12 electron microscope (FEI).

The mark [8] stands for this setting: 10 mg/kg daily, lesion at 12 dpl.

The structures appear in SMILES notation.

Turning to `Nc1cc(F)ccc1NC(=O)/C=C/c1cnn(C/C=C/c2ccccc2)c1` [RGFP966], the “RelA/P65 driven transcription (transcriptional activity)” value in series [1] was “decreases”. Moreover, the “protection of retinal ganglion cells (RGCs) from neurodegeneration” value in series [2] is “protects”. Moreover, the “ability of reactive astrocytes to cross present antigen on MHC Class I” value in series [3] (FIG. 3) is listed as “decrease”. In addition, in series [3] (at either 2.5 or 5.0 μM), the “inhibition of antigen cross-presentation by MHC Class I” value is “completely inhibited”. Further, in series [4] (10 mg/kg i.p. daily plus 5 mg/kg LPS, frontal cortex and corpus callosum, compared to vehicle plus LPS), the “percentage of GFAP+ astrocytes expressing GBP2” value is listed as “lower percentage (about half)”. For the same compound, the “levels of GBP2+ reactive astrocytes” value in series [4] (chronic treatment prior to LPS challenge, frontal cortex, cerebellum, brainstem, and corpus callosum) was “decreased levels”. Also, in series [5], the “levels of acetylated histone 4 (AcH4)” value is “increased”. Besides, the “concentration in brain tissue” value in series [6] (chronic treatment, 10 mg/kg i.p. daily) is listed as “equal to the IC50”. Further, the brain permeance entry in series [6] (mice, 10 mg/kg i.p.) was “brain permeant”. In addition, in series [7], the “expression of genes associated with beneficial reactive astrocytes (BRA)” value is reported as “increasing expression” and the “expression of genes associated with damaging reactive astrocytes (DRA)” value was “decreased expression”. Also, the tissue repair result in the series with spinal cord LPC lesion (10 mg/kg daily from −1 dpl, at 12 dpl, compared to vehicle-treated LPC mice) was “accelerated tissue repair”. Further, in the series with spinal cord LPC lesion (setting [8]), the “axons/mm^2” value is “increased”, the “percentage of axons remyelinated” value is “increased”, the “total axons in lesions” value is “increased” and the total remyelinated entry is recorded as “increased”.
